Consider three compounds from US20110189669A1, “METHODS OF AIDING IN THE DIAGNOSIS OF PROSTATE CANCER” (IMPERIAL INNOVATIONS LIMITED, priority 2008, published 2011).

The subject of assay [1] is GNMT. Particulars: cited from earlier work.
In assay [2] the test system is LNCaP cells. The assay can be described thus: LNCaP cell growth (Sulphorhodamine B cell staining / cell numbers). The class given is cell-based. As to the method:
A) LNCaP cell growth is stimulated by the synthetic androgen R1881 (1 nM), as measured using the Sulphorhodamine B cell staining assay.
LNCaP cells were cultured in the absence or presence of 1 nM R1881 and increasing concentrations of SAH for 6 days at which point cell numbers were measured.
Biological methylation reactions which utilise S-adenosylmethionine (SAM) as a methyl donor encompass several key cellular and metabolic processes and include the methylation of phospholipids, proteins, DNA and RNA. This class of reaction is carried out by methyltransferases that are represented by a diverse group of distantly related proteins (8-10), with domains that catalyse the transfer of the methyl group from SAM to a molecular substrate, together with the in-situ generation of SAH. For most methyltransferases, SAH is known to have a higher affinity than SAM for the catalytic site, thereby acting as a potent feedback inhibitor of methyltransferase activity within the cell. […] In most tissues, the balance between SAM and SAH and the subsequent regulation of global methylation activity resides in the ability to rapidly metabolise SAH through the enzyme S-adenosylhomocysteine hydrolase (SAH hydrolase). […] GNMT is a phylogenetically conserved enzyme (12) that methylates Glycine to produce N-Methyl Glycine (sarcosine), which is known to be largely physiologically inert, and also generates SAH. […]

The test system of assay [3] is LNCaP cells. The assay can be described thus: gene expression microarray of androgen-regulated genes in LNCaP cells. Type of assay: cell-based. How it is done: Microarray analysis was carried out on RNAs prepared from three bioreplicate cultures for the no ligand and R1881 treatments.
In order to identify androgen-regulated genes in LNCaP cells, we have performed gene expression microarray profiling using the Applied Biosystems Genome Survey Microarray V2.0. […] These genes include known androgen-responsive genes, including PSA (KLK3), KLK2, DRG-1 and TMPRSS2.
Detailed time course studies were undertaken to determine the time of androgen treatment for optimal expression of androgen-responsive genes (PSA and DRG-1) in the LNCaP cells (FIG. 1A-D). On the basis of these studies, RNA from […] bio-replicate cultures were prepared from LNCaP cells treated with androgen for 24 hours, as well as the no ligand control. The RNAs were subjected to RNA quality assays and validated by real-time RT-PCR for two control genes (GAPDH and RPLPO) and the androgen regulated genes PSA, DRG-1 and GREB-1. […] Three replicates from each treatment set were subsequently used for hybridisation to the Applied Biosystems (ABI) Human Genome Survey Microarray V2.0, which has probes for 29,098 genes, representing the most comprehensive coverage currently available for any human gene expression microarray platform. Raw data were quality assessed and filtered according to the recommendations supplied by the ABI1700 Data Analysis User Guide and the filtered data “vsn normalised” (4). Differential expression was assessed using liner models and empirical Bayes algorithms as described in (5). This analysis has robustly defined 456 probes whose expression was stimulated by androgen by two fold or greater, with positive lod scores (B values) for differential expression.

Structures are written as SMILES.

For the compound `Nc1nc2ncc(CNc3ccc(C(=O)N[C@@H](CCC(=O)O)C(=O)O)cc3)nc2c(=O)[nH]1` [Folic acid], the “inhibition of GNMT (literature statement)” value in assay [1] is “allosteric inhibitor”.

For the compound `C[C@]1(O)CC[C@H]2[C@@H]3CCC4=CC(=O)CCC4=C3C=C[C@@]21C` [R1881], in assay [2] (R1881 1 nM, Sulphorhodamine B assay), the LNCaP cell growth result was “stimulated”. Besides, in assay [3] (24 hours androgen treatment), the “up-regulation of DRG-1 expression” value was 24 fold, the “up-regulation of KLK2 expression” value is reported as 32 fold, the “up-regulation of PSA (KLK3) expression” value is given as 30 fold and the “up-regulation of TMPRSS2 expression” value is 16 fold. Besides, in assay [3] (within 24 hours of androgen treatment), the “increase in GNMT gene expression” value was determined as 16 fold.

`Nc1ncnc2c1ncn2[C@@H]1O[C@H](CSCC[C@H](N)C(=O)O)[C@@H](O)[C@H]1O` [SAH, S-adenosyl-homocysteine]: in assay [2] (1 nM R1881 plus increasing concentrations of SAH, 6 days), the “effect on androgen-stimulated growth of LNCaP cells” value is given as “potentiates the androgen-stimulated growth”. For the same compound, the “inhibition of GNMT (literature statement)” value in assay [1] is recorded as “relatively insensitive”.
